# Values of other authors in publication PMC6269118, “Populene D Analogues: Design, Concise Synthesis and Antiproliferative Activity” (Molecules, 2012).
# Tests used:
# Set-up in all cases: method as in PMID 18553924
# Settings in all cases: cited from earlier work
# [1] = test system: cervical cancer (HeLa)
# [2] = test system: breast cancer (MCF-7)
# [3] = test system: B. subtilis
# [4] = test system: colon cancer (HT-29)
# [5] = test system: oral cancer (KB)
smiles,measurement,setting,value
Cc1cc2c(c(O)c1O)[C@H](C)CC1=C2[C@@H](C)COC1(C)C [Populene D],IC50,[1],1.85 µg/mL
same,IC50,[2],0.95 µg/mL
same,MIC,[3],4.69 µg/mL
same,IC50,[4],2.37 µg/mL
same,IC50,[5],3.10 µg/mL
